Reference: patent US20250353873A1, “COMPOUNDS AND METHODS FOR MODULATING APOE EXPRESSION” (Ionis Pharmaceuticals, Inc., priority 2024, published 2025)
pIC50: −log10 of the molar value. Strand notation (5' to 3'): a small letter for the sugar, then the base; units joined by * are phosphorothioate-linked, units joined directly phosphodiester-linked; [ ] holds rarer units or linkages, { } end groups; capitals alone tell only the bases. [ms] = mesyl phosphoramidate linkage; e = 2'-O-(2-methoxyethyl) (MOE); [5mC] = 5-methylcytosine; d = 2'-deoxy (DNA)

Columns and labels:
human APOE RNA [1] = test: Activity in APOE C57BL/6NTac-Apoeem7250 knock-in mice, single ICV bolus, 16 weeks (Example 12); type: in vivo; conditions: single ICV bolus 300 μg, 16 weeks post treatment, normalized to mouse Ppia
Protocol: Modified oligonucleotides described above were tested in the APOE C57BL/6NTac-Apoeem7250 knock-in mouse model described above.
APOE C57BL/6NTac-Apoeem7250 knock-in mice were divided into groups of 3-4 mice each. Each mouse received a single intracerebroventricular (ICV) bolus of 300 μg of modified oligonucleotide. A group of 4 mice received a single ICV bolus with PBS as a negative control.
Sixteen weeks post treatment, mice were sacrificed and RNA was extracted from cortical brain tissue and spinal cord for quantitative real-time RT-PCR analysis of RNA expression of APOE using primer probe set RTS3073 (described herein above). APOE RNA levels were normalized to mouse Ppia. Mouse Ppia was amplified using primer probe set m_cyclo24 (described herein above). Results are presented as percent human APOE RNA relative to the amount of human APOE RNA in PBS treated animals, (% control). Each experiment is identified in separate tables below.

human APOE RNA [2] = test: Dose-dependent inhibition of human APOE RNA in HepG2 cells, electroporation, 24 hours (Example 6); type: cell-based
Protocol: Modified oligonucleotides selected from the examples above were tested at various doses in HepG2.
HepG2 cells plated at a density of 50,000 cells per well were treated by electroporation with various concentrations of modified oligonucleotide as specified in the tables below. […] APOE RNA levels were measured using the human primer probe set RTS3073 (described herein above). APOE RNA levels were normalized to human GAPDH. Human GAPDH was amplified using human primer probe set RTS 104 (described herein above). Results are presented as percent APOE RNA, relative to the amount of APOE RNA in untreated control cells (% UTC). The half maximal inhibitory concentration (IC50) of each modified oligonucleotide was calculated in GraphPad Prism 10 (GraphPad Software, San Diego, CA) and is also presented in the tables below.

| Substance | APOE RNA (% control) Cortex (human APOE RNA [1]) | APOE RNA (% control) Spinal Cord (human APOE RNA [1]) | also measured |
| --- | --- | --- | --- |
| 1693142: 6-10-4 MOE gapmer ACTTGGTGAATCTTTATTAA, linkages sssoosszzzssssszsss (eA*e[5mC]*eT*eTeGeG*dT*dG[ms]dA[ms]dA[ms]dT*d[5mC]*dT*dT*dT*dA[ms]eT*eT*eA*eA) [compound 1693142] | 98 % control | 92 % control | – |
| 1693104: 6-10-4 MOE gapmer CTTGGTGAATCTTTATTAAA, linkages ssossszzzssssszssss (e[5mC]*eT*eTeG*eG*eT*dG[ms]dA[ms]dA[ms]dT*d[5mC]*dT*dT*dT*dA[ms]dT*eT*eA*eA*eA) [compound 1693104] | 129 % control | 52 % control | – |
| 1693074: 5-10-5 MOE gapmer ACTTGGTGAATCTTTATTAA, linkages ssosssszzzzzsssssss (eA*e[5mC]*eTeT*eG*dG*dT*dG[ms]dA[ms]dA[ms]dT[ms]d[5mC][ms]dT*dT*dT*eA*eT*eT*eA*eA) [compound 1693074] | 84 % control | 71 % control | – |
| 1693072: 5-10-5 MOE gapmer ACTTGGTGAATCTTTATTAA, linkages ssssosszzzzzsssssss (eA*e[5mC]*eT*eT*eGdG*dT*dG[ms]dA[ms]dA[ms]dT[ms]d[5mC][ms]dT*dT*dT*eA*eT*eT*eA*eA) [compound 1693072] | 82 % control | 61 % control | – |
| 1693064: 5-10-5 MOE gapmer ACTTGGTGAATCTTTATTAA, linkages soossssszzsssssosss (antisense eA*e[5mC]eTeT*eG*dG*dT*dG*dA[ms]dA[ms]dT*d[5mC]*dT*dT*dT*eAeT*eT*eA*eA) [compound 1693064] | 83 % control | 48 % control | – |
| 1693103: 6-10-4 MOE gapmer CTTGGTGAATCTTTATTAAA, linkages sssosszzzssssszssss (e[5mC]*eT*eT*eGeG*eT*dG[ms]dA[ms]dA[ms]dT*d[5mC]*dT*dT*dT*dA[ms]dT*eT*eA*eA*eA) [compound 1693103] | 84 % control | 56 % control | – |
| 1693066: 5-10-5 MOE gapmer ACTTGGTGAATCTTTATTAA, linkages sssssssszzsssssooss (antisense eA*e[5mC]*eT*eT*eG*dG*dT*dG*dA[ms]dA[ms]dT*d[5mC]*dT*dT*dT*eAeTeT*eA*eA) [compound 1693066] | 88 % control | 73 % control | – |
| 1693063: 5-10-5 MOE gapmer TTGGTGAATCTTTATTAAAC, linkages ssssszzzsssszzsssss (antisense eT*eT*eG*eG*eT*dG[ms]dA[ms]dA[ms]dT*d[5mC]*dT*dT*dT[ms]dA[ms]dT*eT*eA*eA*eA*e[5mC]) [compound 1693063] | 97 % control | 87 % control | – |
| 1693062: 5-10-5 MOE gapmer TTGGTGAATCTTTATTAAAC, linkages ssssozzzsssszzsssss (antisense eT*eT*eG*eG*eTdG[ms]dA[ms]dA[ms]dT*d[5mC]*dT*dT*dT[ms]dA[ms]dT*eT*eA*eA*eA*e[5mC]) [compound 1693062] | 98 % control | 110 % control | – |
| 1693079: 6-10-4 MOE gapmer TTGGTGAATCTTTATTAAAC, linkages sssosszzszssszssoss (eT*eT*eG*eGeT*eG*dA[ms]dA[ms]dT*d[5mC][ms]dT*dT*dT*dA[ms]dT*dT*eAeA*eA*e[5mC]) [compound 1693079] | 93 % control | 106 % control | – |
| 1736519: 6-10-4 MOE gapmer CTTGGTGAATCTTTATTAAA, linkages sososszzzssssssssss (e[5mC]*eTeT*eGeG*eT*dG[ms]dA[ms]dA[ms]dT*d[5mC]*dT*dT*dT*dA*dT*eT*eA*eA*eA) [compound 1736519] | – | – | pIC50 (human APOE RNA [2]): 6.47; APOE RNA (% UTC) (human APOE RNA [2]; 5 nM): 107 % UTC; APOE RNA (% UTC) (human APOE RNA [2]; 13 nM): 104 % UTC; APOE RNA (% UTC) (human APOE RNA [2]; 33 nM): 91 % UTC; APOE RNA (% UTC) (human APOE RNA [2]; 82 nM): 75 % UTC; APOE RNA (% UTC) (human APOE RNA [2]; 205 nM): 53 % UTC; APOE RNA (% UTC) (human APOE RNA [2]; 512 nM): 42 % UTC; APOE RNA (% UTC) (human APOE RNA [2]; 1,280 nM): 25 % UTC; APOE RNA (% UTC) (human APOE RNA [2]; 3,200 nM): 15 % UTC; APOE RNA (% UTC) (human APOE RNA [2]; 8,000 nM): 16 % UTC; APOE RNA (% UTC) (human APOE RNA [2]; 20,000 nM): 5 % UTC |
| 1693057: 5-10-5 MOE gapmer TTGGTGAATCTTTATTAAAC, linkages ssssszzzssssszsosss (antisense eT*eT*eG*eG*eT*dG[ms]dA[ms]dA[ms]dT*d[5mC]*dT*dT*dT*dA[ms]dT*eTeA*eA*eA*e[5mC]) [compound 1693057] | 125 % control | 101 % control | – |
| 1693071: 5-10-5 MOE gapmer ACTTGGTGAATCTTTATTAA, linkages ssssssszzzzzsssosss (antisense eA*e[5mC]*eT*eT*eG*dG*dT*dG[ms]dA[ms]dA[ms]dT[ms]d[5mC][ms]dT*dT*dT*eAeT*eT*eA*eA) [compound 1693071] | 68 % control | 66 % control | – |
| 1693141: 6-10-4 MOE gapmer ACTTGGTGAATCTTTATTAA, linkages ssssooszzzssssszsss (eA*e[5mC]*eT*eT*eGeGdT*dG[ms]dA[ms]dA[ms]dT*d[5mC]*dT*dT*dT*dA[ms]eT*eT*eA*eA) [compound 1693141] | 82 % control | 66 % control | – |
| 1693056: 5-10-5 MOE gapmer TTGGTGAATCTTTATTAAAC, linkages ssosszzzssssszsosss (antisense eT*eT*eGeG*eT*dG[ms]dA[ms]dA[ms]dT*d[5mC]*dT*dT*dT*dA[ms]dT*eTeA*eA*eA*e[5mC]) [compound 1693056] | 105 % control | 118 % control | – |
| 1693143: 6-10-4 MOE gapmer ACTTGGTGAATCTTTATTAA, linkages ssossszzzssssszsss (as printed) (sugars from the 5' end e6 d10 e4, all C 5-methyl, backbone not given here; further chemistry not fully specified) [compound 1693143] | 76 % control | 64 % control | – |
| 1693069: 5-10-5 MOE gapmer ACTTGGTGAATCTTTATTAA, linkages ssssosszzzszsssssss (antisense eA*e[5mC]*eT*eT*eGdG*dT*dG[ms]dA[ms]dA[ms]dT*d[5mC][ms]dT*dT*dT*eA*eT*eT*eA*eA) [compound 1693069] | 78 % control | 66 % control | – |
| 1693059: 5-10-5 MOE gapmer TTGGTGAATCTTTATTAAAC, linkages ssssszzzssssszsssss (antisense eT*eT*eG*eG*eT*dG[ms]dA[ms]dA[ms]dT*d[5mC]*dT*dT*dT*dA[ms]dT*eT*eA*eA*eA*e[5mC]) [compound 1693059] | 89 % control | 98 % control | – |
| 1693067: 5-10-5 MOE gapmer ACTTGGTGAATCTTTATTAA, linkages ssosssszzzszsssssss (antisense eA*e[5mC]*eTeT*eG*dG*dT*dG[ms]dA[ms]dA[ms]dT*d[5mC][ms]dT*dT*dT*eA*eT*eT*eA*eA) [compound 1693067] | 97 % control | 162 % control | – |
| 1693055: 5-10-5 MOE gapmer TTGGTGAATCTTTATTAAAC, linkages sososzzzsssssssosss (antisense eT*eTeG*eGeT*dG[ms]dA[ms]dA[ms]dT*d[5mC]*dT*dT*dT*dA*dT*eTeA*eA*eA*e[5mC]) [compound 1693055] | 95 % control | 67 % control | – |
| 1693138: 6-10-4 MOE gapmer CTTGGTGAATCTTTATTAAA, linkages sssssozzzsssszzsoss (e[5mC]*eT*eT*eG*eG*eTdG[ms]dA[ms]dA[ms]dT*d[5mC]*dT*dT*dT[ms]dA[ms]dT*eTeA*eA*eA) [compound 1693138] | 90 % control | 85 % control | – |
| 1736518: 6-10-4 MOE gapmer CTTGGTGAATCTTTATTAAA, linkages soossszzzssssssssss (e[5mC]*eTeTeG*eG*eT*dG[ms]dA[ms]dA[ms]dT*d[5mC]*dT*dT*dT*dA*dT*eT*eA*eA*eA) [compound 1736518] | – | – | pIC50 (human APOE RNA [2]): 6.14; APOE RNA (% UTC) (human APOE RNA [2]; 5 nM): 93 % UTC; APOE RNA (% UTC) (human APOE RNA [2]; 13 nM): 97 % UTC; APOE RNA (% UTC) (human APOE RNA [2]; 33 nM): 99 % UTC; APOE RNA (% UTC) (human APOE RNA [2]; 82 nM): 83 % UTC; APOE RNA (% UTC) (human APOE RNA [2]; 205 nM): 64 % UTC; APOE RNA (% UTC) (human APOE RNA [2]; 512 nM): 44 % UTC; APOE RNA (% UTC) (human APOE RNA [2]; 1,280 nM): 37 % UTC; APOE RNA (% UTC) (human APOE RNA [2]; 3,200 nM): 31 % UTC; APOE RNA (% UTC) (human APOE RNA [2]; 8,000 nM): 30 % UTC; APOE RNA (% UTC) (human APOE RNA [2]; 20,000 nM): 13 % UTC |
